# Patent publication US11613525B2 (CTXT PTY LIMITED, priority 2018, dated 2023)
# Assays:
# [1] = biological target: T1, human STING (HAQ) (Homo sapiens, UniProt Q86WV6, G230A/H232R/R293Q); assay: biochemical; type: binding; conditions: for DSF huSTING (HAQ) ΔTm (° C.): 1 μM protein, compound at 100 μM
# Procedure: (§1) DSF monitors thermal unfolding of protein in the presence of a fluorescent dye and is typically performed using a real-time PCR instrument. The temperature at which a protein unfolds is measured by an increase in the fluorescence of a dye with affinity for hydrophobic parts of the protein that are gradually exposed during unfolding. The fluorescence of the dye is quenched in aqueous environments, but when the dye associates with hydrophobic sites on the unfolded protein, its fluorescence increases. The fluorescence intensity is plotted as a function of the temperature, generating a sigmoidal curve that can be described by a two-state transition. The inflection point of the transition curve (Tm) is calculated using simple equations such as that of Boltzman.
# (§2) Sealed plates were then placed into a Bio-Rad CFX96/C1000 thermocycler and FRET scanning mode (λ^excitation of 490 nm and reads at λ^emission of 570 nm) was used to measure fluorescence intensity. […] The melting point (Tm) obtained for STING protein alone was subtracted from Tm obtained for protein incubated with ligand to generate ΔTm values listed in the table below.
# (§3) These additional compounds were tested as described above, however the protein concentration was 2 μM.
# [2] = biological target: T2, huSTING (WT) (Homo sapiens (Human), UniProt Q86WV6, H232R); assay: Differential scanning fluorimetry (DSF), huSTING (WT); type: binding; conditions: read-out: DSF huSTING (WT) ΔTm (° C.)
# Procedure: as §1, §2, §3
# Target sequence in this assay (Q86WV6 other isoform, or with tags, fused parts or gaps, stated change not applied): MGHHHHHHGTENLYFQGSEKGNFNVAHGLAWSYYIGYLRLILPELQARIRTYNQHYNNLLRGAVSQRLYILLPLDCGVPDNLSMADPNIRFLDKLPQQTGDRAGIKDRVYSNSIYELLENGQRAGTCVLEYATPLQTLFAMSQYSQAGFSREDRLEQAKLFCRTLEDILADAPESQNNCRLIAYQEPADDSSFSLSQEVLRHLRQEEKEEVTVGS
# [3] = biological target: huSTING (HAQ) (Homo sapiens (Human), UniProt Q86WV6, G230A/H232R/R293Q/R71H); assay: THP-1 reporter cell line assay, THP-1 STING Lucia ISG cells; type: cell-based; conditions: THP-1 STING Lucia ISG cells; 24 h; top concentration 50 μM; read-out: Cellular EC50 huSTING (HAQ)
# [4] = biological target: T2, huSTING (WT); assay: THP-1 reporter cell line assay, THP-1-Dual KI-hSTING-R232 cells; type: cell-based; conditions: read-out: Cellular EC50 huSTING (WT)
# Target sequence in this assay (Q86WV6 whole entry H232R): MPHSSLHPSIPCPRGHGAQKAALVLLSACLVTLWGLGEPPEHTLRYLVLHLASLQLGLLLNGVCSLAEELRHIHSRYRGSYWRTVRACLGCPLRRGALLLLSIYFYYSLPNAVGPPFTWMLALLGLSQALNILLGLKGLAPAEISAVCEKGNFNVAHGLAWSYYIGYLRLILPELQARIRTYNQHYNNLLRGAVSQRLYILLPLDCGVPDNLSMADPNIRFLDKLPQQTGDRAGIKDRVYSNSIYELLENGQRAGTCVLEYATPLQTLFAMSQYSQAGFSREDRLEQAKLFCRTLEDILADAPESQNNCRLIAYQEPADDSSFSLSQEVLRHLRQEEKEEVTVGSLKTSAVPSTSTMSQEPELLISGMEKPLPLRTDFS
# [5] = biological target: T1, human STING (HAQ); conditions: read-out: SPR (HAQ) KD; 25° C.
# T1 sequence (Q86WV6 whole entry G230A/H232R/R293Q, looked up): as the sequence (Q86WV6 whole entry H232R) above, with G230A, R293Q counted along it
# huSTING (HAQ), sequence (Q86WV6 whole entry R71H/G230A/H232R/R293Q): as the sequence (Q86WV6 whole entry H232R) above, with R71H, G230A, R293Q counted along it
structure (smiles),measurement,setting,value
"NC(=O)c1ccc(OCc2c(C(=O)O)sc3cccc(F)c23)cc1 [Example 1, 3-((4-Carbamoylphenoxy)methyl)-4-fluorobenzo[b]thiophene-2-carboxylic acid]",DSF huSTING (HAQ) ΔTm (° C.),[1],7.78 °C
same,ΔTm at 100 µM,[2],0.99 °C
same,EC50,[3],> 50 µM
same,EC50,[4],> 50 µM
same,Kd,[5],32 µM
"NC(=O)c1ccc(OCc2c(C(=O)O)sc3ccccc23)cc1 [Example 6, 3-((4-Carbamoylphenoxy)methyl)benzo[b]thiophene-2-carboxylic acid]",DSF huSTING (HAQ) ΔTm (° C.),[1],3.33 °C
same,ΔTm at 100 µM,[2],-1.15 °C
same,EC50,[3],> 50 µM
same,EC50,[4],> 50 µM
same,Kd,[5],90 µM
"NC(=O)c1ccc(OCc2c(C(=O)O)sc3cc(Cl)ccc23)cc1 [Example 10, 3-((4-carbamoylphenoxy)methyl)-6-chlorobenzo[b]thiophene-2-carboxylic acid]",DSF huSTING (HAQ) ΔTm (° C.),[1],1.7 °C
same,ΔTm at 100 µM,[2],-2.34 °C
same,EC50,[3],> 50 µM
same,EC50,[4],> 50 µM
same,Kd,[5],187 µM
"NC(=O)c1ccc(OCc2c(C(=O)O)sc3c(Cl)cccc23)cc1 [Example 12, 3-((4-Carbamoylphenoxy)methyl)-7-chlorobenzo[b]thiophene-2-carboxylic acid]",DSF huSTING (HAQ) ΔTm (° C.),[1],9 °C
same,ΔTm at 100 µM,[2],3.29 °C
same,EC50,[3],> 50 µM
same,EC50,[4],> 50 µM
same,Kd,[5],5.95 µM
"NC(=O)c1ccc(OCc2c(C(=O)O)sc3ccc(Cl)cc23)cc1 [Example 14, 3-((4-Carbamoylphenoxy)methyl)-5-chlorobenzo[b]thiophene-2-carboxylic acid]",DSF huSTING (HAQ) ΔTm (° C.),[1],0.09 °C
same,ΔTm at 100 µM,[2],-4.26 °C
same,EC50,[3],> 50 µM
same,EC50,[4],> 50 µM
same,Kd,[5],120 µM
"NC(=O)c1ccc(OCc2c(C(=O)O)sc3ccc(F)c(F)c23)cc1 [Example 16, 3-((4-Carbamoylphenoxy)methyl)-4,5-difluorobenzo[b]thiophene-2-carboxylic acid]",DSF huSTING (HAQ) ΔTm (° C.),[1],10.12 °C
same,ΔTm at 100 µM,[2],3.49 °C
same,EC50,[3],> 50 µM
same,EC50,[4],> 50 µM
same,Kd,[5],2.19 µM
"Cc1ccc2sc(C(=O)O)c(COc3ccc(C(N)=O)cc3)c2c1Cl [Example 18, 3-((4-Carbamoylphenoxy)methyl)-4-chloro-5-methylbenzo[b]thiophene-2-carboxylic acid]",DSF huSTING (HAQ) ΔTm (° C.),[1],6.29 °C
same,ΔTm at 100 µM,[2],-0.6 °C
same,EC50,[3],> 50 µM
same,EC50,[4],> 50 µM
same,Kd,[5],15.9 µM
"NC(=O)c1ccc(OCc2c(C(=O)O)sc3cc(Cl)cc(F)c23)cc1 [Example 20, 3-((4-Carbamoylphenoxy)methyl)-6-chloro-4-fluorobenzo[b]thiophene-2-carboxylic acid]",DSF huSTING (HAQ) ΔTm (° C.),[1],5.83 °C
same,ΔTm at 100 µM,[2],-2.76 °C
same,EC50,[3],> 50 µM
same,EC50,[4],> 50 µM
same,Kd,[5],34 µM
"NC(=O)c1ccc(OCc2c(C(=O)O)sc3cccc(Br)c23)cc1 [Example 22, 4-Bromo-3-((4-carbamoylphenoxy)methyl)benzo[b]thiophene-2-carboxylic acid]",DSF huSTING (HAQ) ΔTm (° C.),[1],17.08 °C
same,ΔTm at 100 µM,[2],7.61 °C
same,EC50,[3],> 50 µM
same,EC50,[4],41 µM
same,Kd,[5],0.755 µM
"NC(=O)c1ccc(OCc2c(C(=O)O)sc3cccnc23)cc1 [Example 24, 3-((4-Carbamoylphenoxy)methyl)thieno[3,2-b]pyridine-2-carboxylic acid]",ΔTm at 100 µM,[1]; read-out: DSF huSTING (HAQ) ΔTm (° C.),0.6 °C
same,ΔTm at 100 µM,[2],-0.35 °C
same,EC50,[3],> 50 µM
same,EC50,[4],> 50 µM
same,Kd,[5],> 10000 µM
"NC(=O)c1ccc(OCc2c(C(=O)O)sc3cccc(Cl)c23)cc1F [Example 26, 3-((4-Carbamoyl-3-fluorophenoxy)methyl)-4-chlorobenzo[b]thiophene-2-carboxylic acid]",DSF huSTING (HAQ) ΔTm (° C.),[1],10.82 °C
same,ΔTm at 100 µM,[2],3.79 °C
same,EC50,[3],> 50 µM
same,EC50,[4],> 50 µM
same,Kd,[5],1.6 µM
"NC(=O)c1c(F)cc(OCc2c(C(=O)O)sc3cccc(Cl)c23)cc1F [Example 28, 3-((4-Carbamoyl-3,5-difluorophenoxy)methyl)-4-chlorobenzo[b]thiophene-2-carboxylic acid]",DSF huSTING (HAQ) ΔTm (° C.),[1],6.93 °C
same,ΔTm at 100 µM,[2],1.19 °C
same,EC50,[3],> 50 µM
same,EC50,[4],> 50 µM
same,Kd,[5],10.9 µM
